Test results from US20260365670A1, “EGFR INHIBITORS AND USES THEREOF” (DIZAL (JIANGSU) PHARMACEUTICAL CO., LTD., priority 2022, published 2026).
Where two headings read alike, the source gives them in different places.

Experiments:
Type in all cases: cell-based
A-431 = assay: Cell proliferation GI50, A-431 cells (Table 6); conditions: A-431 cells
Protocol: [Worded in the source for another cell line; this cell line is reported under the same test.] Ba/F3 cells expressing EGFR mutations were seeded in 384-well plates at 5000 cells/well in RPMI1640 medium containing […]. PC-9 at 500 cells/well was seeded into 384-well plates in RPMI1640 medium with 10% FBS. After overnight incubation, the assay plates were dosed with compounds at a series of concentrations. Alongside dosing the assay plates, the day 0 plate was processed using CellTiter-Glo® Luminescent Cell Viability Assay (Promega) to measure the number of viable cells (G0). The assay plates were further incubated for 72 hours and the number of viable cells (G3) was measured. The percentage of proliferation was calculated as: […]=100×(G3 value of sample well−G0 value)/(G3 value of DMSO control−G0 value). The concentration of compound producing 50% proliferation inhibition (GI50) was further calculated in best-fit curves using XLFit software. N/A=not available.

PC-9 = assay: Cell proliferation assay, PC-9 cells (CellTiter-Glo, 72 hours); conditions: PC9 cells, CellTiter-Glo, read-out: PC9 GI50
How it was run: (§1)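 Luminescent viable-cell counts were taken on a day 0 plate at dosing and again at endpoint. Proliferation was calculated as (sample − G0)/(DMSO − G0). Seeding was 5000 Ba/F3 or 500 PC-9 cells per well in RPMI1640, followed by overnight attachment and serial compound dilutions. The GI50 was fitted.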

[1] = system: Ba/F3 cells expressing EGFR mutations; assay: Cell proliferation assay, Ba/F3 cells expressing EGFR mutations (CellTiter-Glo, 72 hours); conditions: CellTiter-Glo
How it was run: as §1

[2] = BaF3 cells, EGFR DEL19-C797S, read-out: DEL19-C797S/BaF3 GI50
[3] = BaF3 cells, EGFR DEL19-T790-C797S, read-out: DEL19-T790-C797S/BaF3 GI50
[4] = BaF3 cells, EGFR L858R, read-out: L858R/BaF3 GI50
[5] = BaF3 cells, EGFR L858R-C797S, read-out: L858R-C797S/BaF3 GI50
[6] = BaF3 cells, EGFR L858R-T790-C797S, read-out: L858R-T790-C797S/BaF3 GI50
[7] = BaF3 cells, EGFR L858R-T790M, read-out: L858R-T790M/BaF3 GI50
[8] = EGFR DEL19-T790M, read-out: DEL19-T790M GI50

| Compound | GI50 (A-431) | GI50 (PC-9) | GI50 [1, 2] | GI50 [1, 3] | GI50 [1, 4] | GI50 [1, 5] | GI50 [1, 6] | GI50 [1, 7] | GI50 [1, 8] |
| --- | --- | --- | --- | --- | --- | --- | --- | --- | --- |
| Cn1ncc2c1OCCN1CC3CCC(C3)(C1)n1c(nc3ccc(N4CCOCC4)cc31)NC(=O)c1cc-2c(=O)n(C)c1 (single isomer, unassigned) [Example A62A, 15,21-Dimethyl-5-(morpholin-4-yl)-23-oxa-2,9,11,15,20,21,26-heptaazaheptacyclo[24.4.1.1^{1,28}.1^{13,17}.0^{2,10}.0^{3,8}.0^{18,22}]tritriaconta-3,5,7,9,13,17(33),18(22),19-octaene-12,16-dione] | 7.12 µM | 1320 nM | 393 nM | 1350 nM | 2150 nM | 1200 nM | 2380 nM | 1050 nM | 1400 nM |
| CN1CCN(c2ccc3nc4n(c3c2)C23CCC(CN(CCOc5c(cnn5C)-c5cc(cn(C)c5=O)C(=O)N4)C2)C3)CC1 (single isomer, unassigned) [Example A63A] | 9.37 µM | 841 nM | 324 nM | 540 nM | 2370 nM | 1020 nM | 988 nM | 3690 nM | 929 nM |
| CN(C)C1CN(c2ccc3nc4n(c3c2)C23CCC(CN(CCOc5c(cnn5C)-c5cc(cn(C)c5=O)C(=O)N4)C2)C3)C1 (single isomer, unassigned) [Example A65A] | 2.2 µM | 710 nM | 209 nM | 452 nM | 945 nM | 561 nM | 656 nM | 1970 nM | 652 nM |
| CN1CC2CN(c3ccc4nc5n(c4c3)C34CCC(CN(CCOc6c(cnn6C)-c6cc(cn(C)c6=O)C(=O)N5)C3)C4)CC2C1 (single isomer, unassigned) [Example A68A] | 5.32 µM | 460 nM | 196 nM | 409 nM | 480 nM | 402 nM | 366 nM | 1120 nM | 543 nM |
